These compounds were tested against T1, LSD1 (Homo sapiens, UniProt O60341) (assay: not given). Settings: not given.
T1 construct: purchased Cayman Chemical Company 700120
Assay type: biochemical
`COc1ccc(Cl)cc1C(=O)NNC(=O)c1cc(S(=O)(=O)N2CCOCC2)ccc1F` [Compound 6] gave an IC50 of over 3000 nM. `O=C(NNC(=O)c1cc(S(=O)(=O)N2CCOCC2)ccc1F)c1cccc(Cl)c1` [Compound 7] was tested, and the IC50 was over 3000 nM. `CCN(CC)S(=O)(=O)c1ccc(F)c(C(=O)NNC(=O)c2ccc(C)cc2)c1` [Compound 8] was tested, and the IC50 was over 3000 nM. `C/C(=N\NC(=O)c1cccc(S(=O)(=O)N2CCOCC2)c1)c1cc(Cl)ccc1O` [Compound 12, (E)-N'-(1-(5-chloro-2-hydroxyphenyl)ethylidene)-3-(morpholinosulfonyl)benzohydrazide] showed an IC50 of 13 nM. For `C/C(=N\NC(=O)c1cccc(S(=O)(=O)N2CCOCC2)c1)c1cccc(Cl)c1F` [Compound 13], the IC50 was over 3000 nM. `C/C(=N\NC(=O)c1ccccc1)c1c(O)cccc1O` [Compound 14] gave an IC50 of over 3000 nM. `C/C(=N\NC(=O)c1cccc(S(=O)(=O)N2CCOCC2)c1)c1ccnc(Cl)c1` [Compound 15] gave an IC50 of over 3000 nM. `C/C(=N\NC(=O)c1cccc(S(=O)(=O)N2CCOCC2)c1)c1cc(Cl)ccc1Cl` [Compound 16] gave an IC50 of over 3000 nM. In the case of `C/C(=N\NC(=O)c1ccc(Cl)c(Br)c1)c1cc(Cl)ccc1O` [Compound 17], the IC50 is reported as over 3000 nM. `C/C(=N\NC(=O)c1cnc(Cl)c(Br)c1)c1cc(Cl)ccc1O` [Compound 19] showed an IC50 of over 3000 nM. In the case of `C/C(=N\NC(=O)c1cncc(Cl)c1)c1cc(Cl)ccc1O` [Compound 20], the IC50 is reported as over 3000 nM. `CC/C(=N\NC(=O)c1cccc(S(=O)(=O)N2CCOCC2)c1)c1cc(Cl)ccc1O` [Compound 21, (E)-N'-(1-(5-CHLORO-2-HYDROXYPHENYL)PROPYLIDENE)-3-(MORPHOLINOSULFONYL)BENZOHYDRAZIDE] was tested, and the IC50 was over 3000 nM. Compound `C/C(=N\NC(=O)c1cccc(S(=O)(=O)N2CCOCC2)c1)c1cccnc1` [Compound 22] has an IC50 of over 3000 nM. Compound `C/C(=N\NC(=O)c1cccc(S(=O)(=O)N2CCOCC2)c1)c1cc(Cl)ccc1F` [Compound 27, (E)-N'-(1-(5-chloro-2-fluorophenyl)ethylidene)-3-(morpholinosulfonyl)benzohydrazide] has an IC50 of over 3000 nM. `C/C(=N\NC(=O)c1ccccc1S(=O)(=O)N1CCOCC1)c1cc(Cl)ccc1O` [Compound 28, (E)-N'-(1-(5-chloro-2-hydroxyphenyl)ethylidene)-2-(morpholinosulfonyl)benzohydrazide] showed an IC50 of over 3000 nM. With `C/C(=N\NC(=O)c1cccc(S(=O)(=O)N2CCOCC2)c1)c1cc(Cl)ccc1[N+](=O)[O-]` [Compound 32, (E)-N'-(1-(5-chloro-2-nitrophenyl)ethylidene)-3-(morpholinosulfonyl)benzohydrazide] the IC50 was over 3000 nM. Compound `Cc1cn(C(=O)c2cccc(S(=O)(=O)N3CCOCC3)c2)nc1-c1cc(Cl)ccc1O` [Compound 37, (3-(5-chloro-2-hydroxyphenyl)-4-methyl-1H-pyrazol-1-yl)(3-(morpholinosulfonyl)phenyl)methanone] has an IC50 of over 3000 nM.

What follows are compounds tested on heme oxygenase 1 (HMOX1) (assay: Expression array experiments). Settings: multiple cell lines; data not shown.
Assay type: cell-based
Description: As HMOX1 is known to be regulated by H3 methylation in the promoter (Krieg, A. J., et al. Mol Cell Biol 2010, 30 (1), 344-53), the effect of the test compounds on HMOX1 expression in T-47D cells was determined (see Tables 6 and 7).
`C/C(=N\NC(=O)c1cccc(S(=O)(=O)N2CCOCC2)c1)c1cc(Cl)ccc1O` [Compound 12, (E)-N'-(1-(5-chloro-2-hydroxyphenyl)ethylidene)-3-(morpholinosulfonyl)benzohydrazide] was tested, and the “transcriptional changes, HMOX1” value was “one of the most consistently up-regulated genes”.

— patent publication EP3010915B1 (priority 2013, dated 2014)
